Data reported in US5360794A, “Disubstituted and deoxy disubstituted derivatives of α-D-mannofuranosides and β-L-gulofuranosides having anti-inflammatory and anti-proliferative activity” (Medicarb Inc., priority 1992, dated 1994).

Columns and labels:
[1] = test system: T-lymphocytes (BALB/cBYJ responder spleen cells with mitomycin C treated C57BL/6J stimulator spleen cells); experiment: Mixed lymphocyte response (MLR); format: cell-based, mouse; conditions: estimated IC50, 5 days at 37° C., MTT, 1, 10, 30, 100, and 300 μM
From the text: i Mixed lymphocyte response (MLR).
(§1) The MLR assay measures the effects of a study compound on the activation and antigen presentation of T-lymphocytes, therefore determining immunomodulatory properties. The mouse spleen cell mitogen-induced blastogenesis and the BUD-8 human fibroblast proliferation assays measure the effects of the compounds of the present invention on cellular proliferation of cells involved in the pathogenesis of autoimmune diseases. These two assays are appropriate as screens to ascertain anti-inflammatory and/or autoimmune beneficial activity and are art accepted for such purposes.
The MLR is a classical assay used to measure T cell function by studying the proliferation response of T cells which are activated in vitro by genetically disparate stimulator cells. This is accomplished by co-culturing spleen cells from two different strains of mice. Splenic T cell proliferation occurs as a result of cellular activation signals generated by the ongoing cellular interactions.
In performing MLR assays, BALB/cBYJ mice were euthanized by cervical dislocation and their spleens removed. Single cell suspensions were prepared in culture medium (RPMI-1640 with hepes supplemented with 10% calf serum, 2 mM glutamine, 500 units penicillin/streptomycin, and 4×10^-5 M 2-mercaptoethanol) using a Teflon pestle. The cells were centrifuged at 1500 RPM and the pellets resuspended in ACT (0.15M Tris, 0.14M ammonium chloride, pH 7.2) in order to lyse the red blood cells. After a 5 minute incubation at 37° C. in a waterbath, the cells were washed and resuspended in culture medium. The splenic lymphocytes were counted. C57BL/6J spleen cells, which were used as stimulator cells, were prepared in the same way. The stimulator cells were treated with 50 μg/ml of mitomycin C for 20 minutes at 37° C., then washed five times in culture medium. The proliferative response were measured by culturing 5×10^5 responder spleen cells with […] in 96-well microtiter plates in the presence or absence of test article or vehicle (DMSO). Syngeneic control cultures using mitomycin C treated normal BALB/c spleen cells as the stimulator cells were also run. All cultures were run in triplicate.
Solutions of compounds of the present invention in DMSO were prepared at a stock concentration of 300 mM. Solutions were made in a culture medium to a concentration of 1, 10, 30, 100, and 300 μM. The vehicle DMSO was used as a negative control.
After incubation for 5 days at 37° C. with 5% carbon dioxide, the amount of cell proliferation was measured by adding 20 μl of MTT (10 mg/ml in PBS) (3-[4,5-dimethylthiazol-2-yl]-2,5-diphenyl-tetrazolium bromide) to each well. Plates were incubated for 4 hours at 37° C., after which 180 μl of supernatant was removed and 180 μl of 10% SDS in PBS was added. After an overnight incubation, the optical density (OD) of each well was read on a Molecular Devices microplate reader at 570-650 nm.
The results were determined by calculating the difference between the means of the allogeneic cultures and the means of the syngeneic cultures for each test compound concentration. Differences of the test article groups were compared to the difference of the control group. The percent change from the control was determined and an IC50 estimated. The criteria used to establish activity levels were:
Sixteen (16) novel compounds were assayed for their ability to modulate a Mixed Lymphocyte Response in vitro. The test compounds were added to MLR cultures to give final concentrations of 1, 10, 30, 100, and 300 μM. The responses observed in the test article treated wells were compared to the control wells. […] Based on the estimated IC50, all the test compounds were strong inhibitors of the MLR.

[2] = test system: BUD-8 human skin fibroblast cells; experiment: BUD-8 human cell line fibroblast proliferation assay; format: cell-based; conditions: estimated IC50, BUD-8 cells, 3 days, MTT
From the text: ii BUD-8 human cell line fibroblast proliferation assay.
as §1
The skin cell fibroblast line, BUD-8, was originally derived from the normal skin of a person and can now be obtained from the American Type Culture Collection, Rockville, Md. The concentration of the compounds which were used in this assay were: 1, 10, 30, 100, and 300 μM. The vehicle was used as the negative control. Test compounds were prepared in DMSO at a stock concentration of 300 mM. Appropriate dilutions were made in culture medium.
In this assay BUD-8 cells were collected, counted, and diluted to 2×10^4 cells/ml. 0.1 ml was plated per well to give 2×10^3 cells/well. The compounds of the present invention were diluted in culture medium to the appropriate concentrations. Aliquates of 100 μl were distributed to triplicate wells. Control wells with vehicle and wells with media were also run. After a three day incubation at 37° C. with 5% carbon dioxide, proliferation was measured by adding 20 μl of MTT (10 mg/ml in PBS) (3-[4,5-dimethyl thiazol-2-yl]-2,5-diphenyl-tetrazolium bromide) to each well. Plates were incubated for 4 hours at 37° C., after which 180 μl of 10% SDS in PBS were added. After an overnight incubation, the optical density (OD) of each well was read using a Molecular Devices microplate reader at 570-650 nm.
Duplicate cultures were also set up to measure viability. After 3 days of incubation, supernatants were assayed for lactate dehydrogenase (LDH) activity to determine the viability of the cells, which is an indication of the toxicity of the test article on the BUD-8 cells. 0.1 ml of supernatent was mixed with 0.1 ml of the LDH substrate mixture which contains 5.4×10^-2 M L(+) lactate, 6.6×10^-4 M 2-p-iodophenyl-3-p-nitrophenyl tetrazolium chloride, 2.8×10^-4 M phenazine methosulfate, 1.3×10^-3 M NAD, and 0.2M Tris buffer. pH 8.2. Plates were read immediately for 5 minutes at 490 nm using a Molecular Devices microplate reader.
The mean for each test article treated group was determined and compared to the mean of the control group. The percent change from the control was calculated, and the IC50 estimated. The criteria used to establish activity levels were:
Sixteen (16) test articles were assayed for their ability to inhibit fibroblast proliferation. The test article were added to BUD-8 cell cultures to give final concentrations of 1, 10, 30, 100, and 300 μM. The proliferation observed in the test article treated wells were compared to the DMSO control wells.

[3] = Mus musculus, T-lymphocyte, 120 h
[4] = Homo sapiens, Skin fibroblast, 72 h

| Molecule | IC50 [1, 3] [µM] | IC50 [2, 4] [µM] | IC50 [1] [µM] | IC50 [2] [µM] |
| --- | --- | --- | --- | --- |
| CCCCCCCCCOCCCO[C@H]1O[C@H]([C@H](C)N2CCCC2)[C@@H]2OC(C)(C)O[C@H]12 [Compound 15, n-Nonyloxypropyl 5,6-dideoxy-2,3-O-(1-methylethylidene)-5-pyrrolidinyl-β-L-gulofuranoside] | 0.99 | 170 |  |  |
| C[C@@H]([C@H]1O[C@H](OCCCc2ccccc2)[C@H]2OC(C)(C)O[C@H]21)N1CCCC1 [Compound 24, Phenylpropyl 5,6-dideoxy 2,3-O-(1-methylethylidene)-5-pyrrolidinyl-β-L-gulofuranoside] | < 1 | 225 |  |  |
| CCCCCCCCCOCCCO[C@H]1O[C@H]([C@H](O)CN2CCCCC2)[C@@H]2OC(C)(C)O[C@H]12 [Compound 4, n-Nonyloxypropyl 2,3-O-(1-methylethylidene)-6-deoxy-6-piperidinyl-α-D-mannofuranoside] | 27 | 35 |  |  |
| CCCCCCCCCOCCCO[C@H]1O[C@H]([C@H](O)CN2CCCCCC2)[C@@H]2OC(C)(C)O[C@H]12 [Compound 6, n-Nonyloxypropyl 2,3-O-(1-methylethylidene)-6-deoxy-6-hexamethyleneimino-α-D-mannofuranoside] | < 0.5 | 38 |  |  |
| CCCCCCCCCOCCCO[C@H]1O[C@H]([C@@H](C)OCCN2CCCC2)[C@@H]2OC(C)(C)O[C@H]12 [Compound 12, n-Nonyloxypropyl 2,3-O-(1-methylethylidene)-6-deoxy-5-O-(N'-ethylpyrrolidinyl)-α-D-mannofuranoside] | < 0.5 | 42 |  |  |
| n-Nonyloxypropyl 2,3-O-(1-methylethylidene)-6-deoxy-6-aminothylpyrrolidinyl-α-D-mannofuranoside [Compound 7] |  |  | 0.75 | 105 |
| CCCCCCCCCOCCCO[C@H]1O[C@H]([C@H](O)CN2CCCC2)[C@@H]2OC(C)(C)O[C@H]12 [Compound 3, n-Nonyloxypropyl 2,3-O-(1-methylethylidene)-6-deoxy-pyrrolidinyl-α-D-mannofuranoside] | < 1 | 18 |  |  |
| CC1(C)O[C@@H]2[C@H](O1)[C@@H](OCCCCN1CCCC1)O[C@@H]2[C@H](O)CO [Compound 29, 4'-(1-Pyrrolidinyl)butyl 2,3-O-(1-methylethylidene)-α-D-mannofuranoside] | 26 | 190 |  |  |
| CCCCCCCCCOCCCO[C@H]1O[C@H]([C@H](O)CNCCCCCCC)[C@@H]2OC(C)(C)O[C@H]12 [Compound 8, n-Nonyloxypropyl 2,3-(1-methylethylidene)-6-deoxy-6-aminoheptyl-α-D-mannofuranoside] | < 1 | 16 |  |  |
| CCCCCCCNC[C@@H](O)[C@H]1O[C@H](OCCCc2ccccc2)[C@H]2OC(C)(C)O[C@H]21 [Compound 21, Phenylpropyl 6-deoxy 2,3-O-(1-methylethylidene)-6-heptylamino-α-D-mannofuranoside] | < 1 | 19 |  |  |
| C[C@@H](OCCN1CCCC1)[C@H]1O[C@H](OCCCc2ccccc2)[C@H]2OC(C)(C)O[C@H]21 [Compound 27, Phenylpropyl 6-deoxy 2,3-O-(1-methylethylidene)-5-O-(N'-ethylpyrrolidinyl)-α-D-mannofuranoside] | 5.8 | 148 |  |  |
| CCCCCCCCCOCCCO[C@H]1O[C@H]([C@H](O)CN2CCOCC2)[C@@H]2OC(C)(C)O[C@H]12 [Compound 5, n-Nonyloxypropyl 2,3-O-(1-methylethylidene)-6-deoxy-6-morpholinyl-α-D-mannofuranoside] | 19 | > 200 |  |  |
| CC1(C)O[C@@H]2[C@H](O1)[C@@H](OCCCc1ccccc1)O[C@@H]2[C@H](O)CN1CCCC1 [Compound 20, Phenylpropyl 6-deoxy 2,3-O-(1-methylethylidene)-6-pyrrolidinyl-α-D-mannofuranoside] | < 1 | > 300 |  |  |
| CCCCCCCCCOCCCO[C@H]1O[C@H]([C@@H](C)OCCCN(C)C)[C@@H]2OC(C)(C)O[C@H]12 [Compound 10, n-Nonyloxypropyl 2,3-O-(1-methylethylidene)-6-deoxy-5-O-(N,N-dimethylaminopropyl)-α-D-mannofuranoside] | < 1 | 17 |  |  |
| C[C@@H](OCCCN(C)C)[C@H]1O[C@H](OCCCc2ccccc2)[C@H]2OC(C)(C)O[C@H]21 [Compound 26, Phenylpropyl 6-deoxy 2,3-O-(1-methylethylidene)-5-O-3'-(N'N'-dimethylamino-n-propyl)-α-D-mannofuranoside] | < 1 | 65 |  |  |
| CC1(C)O[C@@H]2[C@H](O1)[C@@H](OCCCc1ccccc1)O[C@@H]2[C@H](O)CNCCCN1CCCC1 [Compound 22, Phenylpropyl 6-deoxy 2,3-O-(1-methylethylidene)-6-aminopropylpyrrolidinyl-α-D-mannofuranoside] | 0.85 | 16 |  |  |
